Assay [1] deals with T1, STAT1 (Homo sapiens, UniProt P42224).
T1 construct: full-length STAT1 (Uniprot #P42224-1) was expressed in E. coli; His tag (pEXP-NHis vector) (N); made in house; host or cells: E. coli T7 Express
T1 sequence (P42224 1-750): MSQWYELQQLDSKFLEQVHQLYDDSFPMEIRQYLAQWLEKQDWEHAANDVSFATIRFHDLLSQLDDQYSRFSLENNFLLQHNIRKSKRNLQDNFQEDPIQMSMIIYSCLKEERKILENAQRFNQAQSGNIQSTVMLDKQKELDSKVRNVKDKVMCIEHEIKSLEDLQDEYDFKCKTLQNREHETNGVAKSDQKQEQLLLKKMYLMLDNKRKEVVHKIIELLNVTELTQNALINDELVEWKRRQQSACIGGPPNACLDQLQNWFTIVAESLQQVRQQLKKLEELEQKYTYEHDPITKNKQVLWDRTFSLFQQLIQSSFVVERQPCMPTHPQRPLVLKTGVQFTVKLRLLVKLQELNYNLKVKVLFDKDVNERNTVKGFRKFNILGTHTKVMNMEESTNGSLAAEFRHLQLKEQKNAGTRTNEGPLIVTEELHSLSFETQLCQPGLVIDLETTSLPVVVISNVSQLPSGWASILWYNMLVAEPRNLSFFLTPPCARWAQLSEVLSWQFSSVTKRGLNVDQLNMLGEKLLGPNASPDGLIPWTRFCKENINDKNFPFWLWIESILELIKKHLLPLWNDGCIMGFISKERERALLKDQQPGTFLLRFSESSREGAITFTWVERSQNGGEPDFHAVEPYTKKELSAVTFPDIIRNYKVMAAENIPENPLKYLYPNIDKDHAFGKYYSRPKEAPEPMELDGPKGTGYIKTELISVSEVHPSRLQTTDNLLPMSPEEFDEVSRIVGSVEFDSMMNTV
Description: Isothermal titration calorimetry (ITC) of peptide binding to STAT1. The protocol:
To determine affinities and thermodynamic profiles of binding, we performed isothermal titration calorimetry (ITC) experiments for peptides 1, 2, 3, 4, 7, and 8 (Figures A,B and S1,S2, Table S1). […] The experiments were repeated in two different buffer systems, TBST (50 mM Tris pH 8.0, 300 mM NaCl, 0.01% Tween-20) and PBST ([…], 150 mM NaCl, 0.01% Tween-20), to account for possible buffer protonation enthalpy artifacts. […]
Isothermal titration calorimetry (ITC)
ITC experiments were performed using a PEAQ ITC instrument (Malvern Panalytical) in either TBST (50 mM Tris pH 8.0, 300 mM NaCl, 0.5 mM TCEP, 0.01% Tween -20) or PBST (10 mM sodium phosphate pH 7.4, 150 mM NaCl, 0.01% Tween -20) as reaction buffers. STAT1 protein was buffer -exchanged into reaction buffer supplemented with 2% DMSO on a NAP -5 deslating column (Cytiv a #17085301) and its concentration was adjusted to 10 or 20 μM.
Peptides were diluted in reaction buffer from DMSO stocks to a matching 2% DMSO concentration. Peptide concentrations were adjusted to approximately 100-200 μM. ITC experiments were performed with STAT1 in the cell and peptides in the syringe at 25°C, with 750 RPM stirring, DP = 4 μcal/sec. 18 injections of 2 μl were performed over a 50 min titration.
Thermogram integra tion and isotherm fitting were performed using the PEAQ ITC analysis software (Malvern Panalytical ). Isotherms were fitted using a 1:1 binding model. Due to challenges in determining peptide concentrations with high accuracy , protein concentrations and stoichiometry (N=1.0) were kept constant during isotherm fitting, whereas peptide concentrations were allowed to vary. Fixing a single reactant concentration during fitting is acceptable given the sufficiently high C -values and isotherm curvature observed in the […]
Offset subtraction was implemented to remove injection heats.
For orientation: ITC needs no label: the signal is the heat of the interaction.

Assay [2] addresses T1, STAT1. Kind of assay: Grating-coupled interferometry (GCI) waveRAPID kinetics, immobilised full-length STAT1. Particulars: for Kd: 20 mM HEPES pH 7.5, 300 mM NaCl, 0.01% Tween-20, 1:1 kinetic model, average of 2–4 technical replicates ± SD, SD; for kon at 0.5 µM: analyte 0.5 µM, read-out: ka. In kind it is binding. The text has this:
Understanding the molecular determinants of kinetic rate constants of binding (k a, k d) can aid the design of pharmacological probes with longer target engagement, which is beneficial for drug efficacy and decreased toxicity. , We characterized the binding kinetics of 018-derived macrocycles by using grating-coupled interferometry (GCI). We used waveRAPID, a regeneration-free kinetic binding assay that applies sequential analyte pulses of increasing duration onto a GCI biosensor surface with an immobilized target (Figures A, and S3,S4, Table S2).
(§1) Grating coupled interferometry (GCI)
(§2) GCI experiments were performed on a Creoptix WaveDELTA instrument (Malvern Panalytical). Full-length STAT1 or STAT3 were immobilised on a 4PCH chip (Malvern Panalytical #4PCH-03) to a density 2000-8000 pg/mm2 using EDC/NHS activation followed by amine coupling. Briefly, proteins (500 nM) were applied onto an activated chip in 10 mM MES pH 6.5, 20 mM NaCl, after which the chip surface was passivated with 1M ethanolamine, pH 8.0.
(§3) The kinetic measurements were perfor med using 20 mM HEPES pH 7.5, 300 mM NaCl, 0.01% Tween-20, 0.0005% DMSO as running buffer. Peptides were tested at 0.5 or 10 μM concentration using the waveRAPID kinetics experiment with the tight binder or intermediate binder mode, respectively.[4] Sensorgrams were fitted in the waveControl software (Malven Panalytical) using the 1:1 kinetic model. […]

Assay [3] has as its target T2, STAT3 (Homo sapiens, UniProt P40763).
T2 construct: STAT3: the gene encoding full-length STAT3 was codon optimised for expression in; MBP (pEXP-MBP vector) (cleaved yes); His tag (IMAC capture, removed with the fusion by TEV and reverse IMAC) (cleaved yes); made in house; host or cells: E. coli T7 Express
Description: biochemical. In kind it is binding. The protocol: In such PPIs, the bulk of the binding energy contribution typically stems from backbone interactions, whereas binding specificity is fine-tuned by side-chain contacts. […] We evaluated the binding kinetics of peptides to full-length STAT3 using GCI.
as §1, §2, §3
GCI sensorgrams depicting RAPID kinetics measurements and fitted kinetic models for peptide binding to full-length STAT3 immobilised on a polycarboxylate hydrogel chip (4PCH). Peptides were applied at 0.5 or 10 μM concentration using the medium or tight binders pulse sequence. The peptides that show negligible Rmax values at 10 μM analyte concentration were classified as non-binding.
(1 picture or pasted object on this page, not shown here)

The target of assay [4] is T1, STAT1. Kind of assay: Fluorescence polarization competition assay with fluorescein-labelled pIFNGR1 docking site peptide probe. The class given is binding. Particulars: 10 nM fluorescein pIFNGR1 probe, STAT1 1.5 μM, 20 mM Tris pH 8.0, 300 mM NaCl, 0.1% Tween-20, 0.5 mM TCEP, 2.5% DMSO, room temperature; four parameter logistic fit; read-out: IC50 (FP competition, pIFNGR1 probe displacement). On the technique in general: Polarisation of emitted light reports the rotation of a fluorescent probe.

Setting [5] is: PBST pH 7.4 (NaPi, 150 mM NaCl, 0.01% Tween-20), average of 2–3 technical replicates, read-out: KD (ITC, summary Fig 2B).
Where [6] appears, read: TBST pH 8.0, average of 2–3 technical replicates, read-out: KD (ITC, summary Fig 2B).
Where [7] appears, read: replicate 1 (first listed run, Table S2).
[8] abbreviates: replicate 2 (second listed run, Table S2).
Setting [9] is: replicate 3 (third listed run, Table S2).

Where two headings read alike, the source gives them in different places. *1 amine or outer side, *2 acyl side, *3 side chain or, on linkers, in order; H or OH if unused. Where a SMILES comes first, the peptide text is derived from it. Bridges are numbered along the chain shown (N, C = ends). [ ]: non-standard residue; d: D form. oXylylene = c1ccc(C[*:2])c(C[*:1])c1; βAla = NCCC(=O)O

One may read the Kd as the free concentration of one partner at which half of the binding sites on the other are occupied at equilibrium, for simple one-to-one binding. For orientation: IC50 means the concentration at which inhibition is half-maximal.

T2 sequence (P40763 whole entry, species assumed, the tested form may be a part): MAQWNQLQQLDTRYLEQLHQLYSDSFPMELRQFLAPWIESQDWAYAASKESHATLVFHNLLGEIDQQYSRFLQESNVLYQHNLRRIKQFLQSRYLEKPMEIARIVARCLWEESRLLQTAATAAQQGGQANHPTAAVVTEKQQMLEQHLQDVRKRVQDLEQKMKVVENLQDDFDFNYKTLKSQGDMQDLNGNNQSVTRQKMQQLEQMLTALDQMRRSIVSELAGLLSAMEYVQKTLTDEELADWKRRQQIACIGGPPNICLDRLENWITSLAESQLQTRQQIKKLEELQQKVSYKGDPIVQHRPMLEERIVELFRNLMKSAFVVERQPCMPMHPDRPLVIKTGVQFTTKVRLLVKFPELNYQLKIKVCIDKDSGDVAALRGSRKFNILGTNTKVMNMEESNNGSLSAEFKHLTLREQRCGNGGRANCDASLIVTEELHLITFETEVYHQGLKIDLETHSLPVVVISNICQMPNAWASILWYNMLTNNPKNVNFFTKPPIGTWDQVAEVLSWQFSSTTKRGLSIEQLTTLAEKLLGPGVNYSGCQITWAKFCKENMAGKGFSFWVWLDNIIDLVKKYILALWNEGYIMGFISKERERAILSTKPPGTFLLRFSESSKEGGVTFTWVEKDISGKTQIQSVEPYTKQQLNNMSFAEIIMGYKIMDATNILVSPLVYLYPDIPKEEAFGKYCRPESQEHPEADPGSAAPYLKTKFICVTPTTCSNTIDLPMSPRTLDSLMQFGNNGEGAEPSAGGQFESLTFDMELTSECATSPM

`CSCC[C@@H]1NC(=O)CCNC(=O)CCNC(=O)[C@H]([C@@H](C)O)NC(=O)[C@H](Cc2ccc(O)cc2)NC(=O)[C@H]([C@@H](C)O)NC(=O)[C@H](CCCCN)NC(=O)[C@H](CO)NC(=O)[C@H](CS)NC(=O)[C@H](CCCCN)NC(=O)[C@H](CC(N)=O)NC(=O)[C@H](CO)NC(=O)CNC(=O)[C@H](CC(=O)O)NC(=O)[C@H](Cc2c[nH]cn2)NC(=O)CNC(=O)[C@H](Cc2c[nH]cn2)NC(=O)[C@H](CS)NC(=O)[C@H](Cc2ccccc2)NC(=O)[C@H](C(C)C)NC(=O)[C@H](CO)NC(=O)[C@H](Cc2c[nH]c3ccccc23)NC1=O` [Peptide 7] (cyclo(CHGHDGSNKCSKTYT[βAla][βAla]MWSVF)): the Kd in assay [1] (setting [5]) was 114 nM; in assay [1] (setting [6]), 1930 nM; in assay [2], 96.9 ± 4 nM. The results for the kon at 0.5 µM in assay [2] (setting [7]), in assay [2] (setting [8]) and in assay [2] (setting [9]) were 129000 M⁻¹ s⁻¹, 131000 M⁻¹ s⁻¹ and 137000 M⁻¹ s⁻¹, respectively.
As for `CC[C@H](C)[C@@H]1NC(=O)[C@H](CS)NC(=O)[C@H](C(C)C)NC(=O)[C@H](CO)NC(=O)[C@H](Cc2c[nH]c3ccccc23)NC(=O)[C@H](CCSC)NC(=O)CCNC(=O)CCNC(=O)[C@H]([C@@H](C)O)NC(=O)[C@H](Cc2ccc(O)cc2)NC(=O)[C@H]([C@@H](C)O)NC(=O)[C@H](CCCCN)NC(=O)[C@H](CS)NC(=O)CNC(=O)[C@H](CCCCN)NC(=O)[C@H](CC(N)=O)NC(=O)[C@H](CO)NC(=O)CNC(=O)[C@H](CC(=O)O)NC(=O)[C@H](Cc2c[nH]cn2)NC(=O)CNC(=O)[C@H](Cc2c[nH]cn2)NC1=O` [Peptide 3] (cyclo(CIHGHDGSNKGCKTYT[βAla][βAla]MWSV)), the dissociation constant (Kd) in assay [1] (setting [5]) worked out at 55 nM; in assay [1] (setting [6]) it was 145 nM; in assay [2], 7.5 ± 0.5 nM; in assay [3] (full-length STAT3 on 4PCH chip, average of technical replicates ± SD (Fig 3E), SD, read-out: STAT3 KD (GCI waveRAPID)), 9300 ± 453 nM. For the same compound, the kon at 0.5 µM in assay [2] (setting [7]) came out at 261000 M⁻¹ s⁻¹; in assay [2] (setting [8]), 276000 M⁻¹ s⁻¹. Also, the ka in assay [3] came to 83900 M⁻¹ s⁻¹. The kon in assay [3] (read-out: ka) amounted to 81000 M⁻¹ s⁻¹. Also, in assay [4], the IC50 was 1300 nM.
For `CSCC[C@@H]1NC(=O)CCNC(=O)CCNC(=O)[C@H]([C@@H](C)O)NC(=O)[C@H](Cc2ccc(O)cc2)NC(=O)[C@H]([C@@H](C)O)NC(=O)[C@H](CCCCN)NC(=O)[C@H](CO)NC(=O)[C@@H]2CSCc3ccccc3CSC[C@H](NC(=O)[C@H](Cc3ccccc3)NC(=O)[C@H](C(C)C)NC(=O)[C@H](CO)NC(=O)[C@H](Cc3c[nH]c4ccccc34)NC1=O)C(=O)N[C@@H](Cc1c[nH]cn1)C(=O)NCC(=O)N[C@@H](Cc1c[nH]cn1)C(=O)N[C@@H](CC(=O)O)C(=O)NCC(=O)N[C@@H](CO)C(=O)N[C@@H](CC(N)=O)C(=O)N[C@@H](CCCCN)C(=O)N2` [Peptide 8] (cyclo(CHGHDGSNKCSKTYT[βAla][βAla]MWSVF); linker 1-10 via oXylylene), the Kd in assay [1] (setting [5]) is 247 nM; in assay [1] (setting [6]), 436 nM; in assay [2], 75.4 ± 0.8 nM. Moreover, the results for the kon at 0.5 µM in assay [2] (setting [7]) and in assay [2] (setting [8]) were 87000 M⁻¹ s⁻¹ and 80000 M⁻¹ s⁻¹, respectively.
On to `CC[C@H](C)[C@@H]1NC(=O)[C@H](Cc2ccccc2)NC(=O)[C@H](C(C)C)NC(=O)[C@H](CO)NC(=O)[C@H](Cc2c[nH]c3ccccc23)NC(=O)[C@H](CCSC)NC(=O)CCNC(=O)CCNC(=O)[C@H]([C@@H](C)O)NC(=O)[C@H](Cc2ccc(O)cc2)NC(=O)[C@H]([C@@H](C)O)NC(=O)[C@H](CCCCN)NC(=O)[C@H](CO)NC(=O)CNC(=O)[C@H](CCCCN)NC(=O)[C@H](CC(N)=O)NC(=O)[C@H](CO)NC(=O)CNC(=O)[C@H](CC(=O)O)NC(=O)[C@H](Cc2c[nH]cn2)NC(=O)CNC(=O)[C@H](Cc2c[nH]cn2)NC1=O` [Peptide 2], for which the equilibrium dissociation constant (Kd) in assay [1] (setting [5]) is 122 nM; in assay [1] (TBST (50 mM Tris pH 8.0, 300 mM NaCl, 0.01% Tween-20), 25°C, 1:1 model, average of three technical replicates ± SD (text and Fig 2A), SD, read-out: KD (ITC)), 330 ± 20 nM; in assay [2] it was 8.9 ± 1.9 nM. Further, the kon at 0.5 µM in assay [2] (setting [7]) was found to be 216000 M⁻¹ s⁻¹; in assay [2] (setting [8]) it was 213000 M⁻¹ s⁻¹; in assay [2] (setting [9]), 321000 M⁻¹ s⁻¹.
On to `CC[C@H](C)[C@@H]1NC(=O)[C@@H](NC(=O)[C@@H](NC(=O)[C@H](CO)NC(=O)[C@H](Cc2c[nH]c3ccccc23)NC(=O)[C@H](CCSC)NC(C)=O)C(C)C)CSCc2ccccc2CSC[C@@H](C(=O)N[C@@H](CCCCN)C(=O)N[C@H](C(=O)N[C@@H](Cc2ccc(O)cc2)C(=O)N[C@H](C(N)=O)[C@@H](C)O)[C@@H](C)O)NC(=O)CNC(=O)[C@H](CCCCN)NC(=O)[C@H](CC(N)=O)NC(=O)[C@H](CO)NC(=O)CNC(=O)[C@H](CC(=O)O)NC(=O)[C@H](Cc2c[nH]cn2)NC(=O)CNC(=O)[C@H](Cc2c[nH]cn2)NC1=O` [Peptide 9] (Ac-MWSVCIHGHDGSNKGCKTYT-NH2; linker 5-16 via oXylylene), for which, in assay [2], the equilibrium dissociation constant (Kd) came to 1.5 ± 0.1 nM. The kon at 0.5 µM in assay [2] (setting [7]) stood at 587000 M⁻¹ s⁻¹; in assay [2] (setting [8]), 570000 M⁻¹ s⁻¹; in assay [2] (setting [9]), 540000 M⁻¹ s⁻¹.
